In patent publication EP0678516B1, “Preparation of 2-bromo-5-(2-bromo-2-nitrovinyl)-furan and its use as microcide” (CENTRO DE BIOACTIVOS QUIMICOS DE LA UNIVERSIDAD CENTRAL DE …, priority 1994, dated 1995):
Values after ≈ are worked out from the molar mass of the structure shown.

Assays:
Percutaneous LD50 = format: in vivo, mice OF1; details: interscapular region, 0.2 ml/10 g of body mass
Excerpt: (§1) Moreover, the anatomopathological elements and the clinical events were characterized during the experiments.

Pseudomonas aeruginosa [1] = assay: Intramuscular treatment of stud bulls affected with piocianosis; format: in vivo
Description: The active principle was administered in a dose of 5-10 mg/kg of body mass by intramuscular route in bulls affected with piocianosis Pseudomonas aeruginosa. […] In clinical tests no allergic reactions were detected in animals (Table No.5).

Pseudomonas aeruginosa [2] = assay: Experimental eye infection, erosion and instillation method; format: in vivo, New Zealand Rabbits; details: post inoculation evaluation
Description: The effectiveness of two oil formulations was checked of 0.05% for the experimental treatment of eye infections by Pseudomonas aeruginosa in New Zealand Rabbits through the erosion and instillation method. The effectiveness of treatments was tested clinically and microbiologically, observing significant differences with the control group (not treated) (Table No. 2 and 2.1.).

[3] = Chronic study, external application for six months; format: in vivo, Sprague Dawley rats; details: applied externally for a period of six months
Excerpt: Chronic studies of 2-bromo-5-(2-bromo-nitro-vinyl)-furan were made on Sprague Dawley rats.

Oral LD50 [4] = format: in vivo, mice OF1; details: taken orally, tragacant gum as vehicle
Excerpt: as §1

Bacillus alvei = assay: In vitro MIC (serial dilution); format: cell-based; details: Paenibacillus alvei
Description: (§2) The antimicrobial sensitivity was first evaluated "in vitro" using the serial dilution method for bacteria and fungi. Other growth methods in agar cultures were included for other species. The liquid and solid mediums used were Mueller-Hinton, Tryptona Soya, Sabouraud Dextrosa, Sabouraud Maltose and other mediums in accordance with the cultural demands of the micro-organisms valued.
(§3) The temperature and incubation period was adjusted to conditions and characteristics of the micro-organisms used.
(§4) The Minimal Inhibitory Concentration (MIC) was calculated in terms of MIC50 and MIC90 in µg/ml.

Microsporum canis = assay: In vitro MIC (serial dilution); format: cell-based
Description: as §2, §3, §4

Salmonella enteritidis = assay: In vitro MIC (serial dilution); format: cell-based; details: Salmonella enterica
Description: as §2, §3, §4

[5] = system: Vibrio cholerae ser. Inabu; assay: In vitro MIC (serial dilution); format: cell-based
Description: as §2, §3, §4

Epidermophyton floccasum = assay: In vitro MIC (serial dilution); format: cell-based; details: only one value given
Description: as §2, §3, §4

Aspergillus sp. = assay: In vitro MIC (serial dilution); format: cell-based
Description: as §2, §3, §4

Leptospira canicola = assay: In vitro MIC (serial dilution); format: cell-based; details: Leptospira interrogans
Description: as §2, §3, §4

Proteus morganii = assay: In vitro MIC (serial dilution); format: cell-based; details: Morganella morganii
Description: as §2, §3, §4

Fusarium sp. = assay: In vitro MIC (serial dilution); format: cell-based; details: read-out: Minimal Inhibitory Concentration (MIC)
Description: as §2, §3, §4

Staphylococcus aureus = assay: In vitro MIC (serial dilution); format: cell-based
Description: as §2, §3, §4

Haemophilus influenzae = assay: In vitro MIC (serial dilution); format: cell-based
Description: as §2, §3, §4

Microsporum gypseum = assay: In vitro MIC (serial dilution); format: cell-based; details: Nannizzia gypsea
Description: as §2, §3, §4

[6] = Ophthalmic irritability studies; format: in vivo
Excerpt: as §1

Oral LD50 [7] = format: in vivo, Sprague Dawley rats; details: taken orally, tragacant gum as vehicle
Excerpt: as §1

Pseudomonas aeruginosa [8] = assay: Experimental infection, implanted sponge method; format: in vivo, mice
Description: The effectiveness of three oil formulations were also tested, at 0.15, 0.2, 0.25% and a control with placebo in mice experimentally infected using implanted sponge method, inoculated with Pseudomonas aeruginosa and Staphylococcus aureus. Recuperation of the animal was between 3 and 4 days of treatment (Tables No. 3 and 3.1).
Read: n = Accumulated from recuperated animals Tr = Recuperation time in days (weighted average) ((n1±1) + ((n2-n1) ±2)+((n3-n2)±3((n4-n3)±4)/n [formula] I,II, III: treated with 2-bromo-5-(2-bromo-2-nitro-vinyl)-furan.

queratoconjunctivitis = assay: Effectiveness against bacterial eye diseases, all treated eyes; format: in vivo; details: 9435 animal eyes, overall
Excerpt: The effectiveness of the active principle against bacterial eye diseases in: 9435 animal eyes affected with queratoconjunctivitis; 8093 of cattle and 1342 of other species (sheep, rabbits, dogs, horses, pigs, cats, guinea-pigs and birds).

[9] = system: septic puerperal metritis; assay: Treatment of septic puerperal metritis; format: in vivo, female oxes; details: G-1 1.5% oil solution intrauterine, Tetracycline abdominal aorta route
Description: The treatment consisted in applying 40 ml for three consecutive days at intervals of 24 hours from the diagnosis of the disease process. Treatment was compared with intrasoric tetracyclin.

[10] = 5-10 mg/kg of body mass, intramuscular route
[11] = 25 ill bulls, 5 treatments per animal, 5-10 mg/kg intramuscular
[12] = group I, ointment at 0.05% for 8 days
[13] = group II, ointment at 0.05% for 4 days
[14] = group III, eye drops at 0.05% for 4 days

With `O=[N+]([O-])C(Br)=Cc1ccc(Br)o1` [Product G-1, 2-bromo-5-(2-bromo-2-nitro-vinyl)-furan] the LD50 (Percutaneous LD50; mice OF1 females) was 9.8%, the LD50 (Percutaneous LD50; mice OF1 males) was 12.1% and the “allergic reactions to the medicament” value (Pseudomonas aeruginosa [1]; [10]) was “without any allergic reactions to the medicament being detected”. For the same compound, the “seminal parameters established as quality control” value (Pseudomonas aeruginosa [1]; [10]) was “no alterations being detected”, the “Recuperated (animals)” value (Pseudomonas aeruginosa [1]; [11]) was 21 and the percentage of effectiveness (Pseudomonas aeruginosa [1]; [11]) was 84%. For the same compound, the “bacteriological tests carried out in the semen” value (Pseudomonas aeruginosa [1]; at 3,7,14,21 and 28 days) was “negative at germ”, the “cytotoxicity and morphological characteristic of spermatozoid” value (Pseudomonas aeruginosa [1]; frozen semen of treated bulls) was “absence of cytotoxicity and variations in morphological characteristic of spermatozoid” and the “Bacteriolo-gical Exam” value (Pseudomonas aeruginosa [2]; [12]) was 6 (+). For the same compound, the Edam (Pseudomonas aeruginosa [2]; [12]) was 6/6, the Hyperemia (Pseudomonas aeruginosa [2]; [12]) was 6/6 and the Secretions (Pseudomonas aeruginosa [2]; [12]) was 6/6. For the same compound, the Ulcer (Pseudomonas aeruginosa [2]; [12]) was 6/6, the “Bacteriolo-gical Exam” value (Pseudomonas aeruginosa [2]; [13]) was 6 (+) and the Edam (Pseudomonas aeruginosa [2]; [13]) was 6/6. The Hyperemia (Pseudomonas aeruginosa [2]; [13]) was 6/6, the Secretions (Pseudomonas aeruginosa [2]; [13]) was 6/6 and the Ulcer (Pseudomonas aeruginosa [2]; [13]) was 6/6. The “Bacteriolo-gical Exam” value (Pseudomonas aeruginosa [2]; [14]) was 6 (+), the Edam (Pseudomonas aeruginosa [2]; [14]) was 6/6 and the Hyperemia (Pseudomonas aeruginosa [2]; [14]) was 6/6. The Secretions (Pseudomonas aeruginosa [2]; [14]) was 6/6, the Ulcer (Pseudomonas aeruginosa [2]; [14]) was 6/6 and the “haematological, haemochemical and histopathological studies” value [3] was “did not lead to any major problems in the different organs and tissues analysed”. For the same compound, the “Lethal Average Dose (LD50)” value (Oral LD50 [4]; mice OF1 females) was 1731.4 mg/kg of body mass, the “Lethal Average Dose (LD50)” value (Oral LD50 [4]; mice OF1 male) was 1835.8 mg/kg of body mass and the MIC50 (Bacillus alvei) was 2.21 µg/mL (≈ 7.44 µM). For the same compound, the MIC90 (Bacillus alvei) was 5.08 µg/mL (≈ 17.1 µM), the MIC50 (Microsporum canis) was 7.91 µg/mL (≈ 26.6 µM) and the MIC90 (Microsporum canis) was 40.6 µg/mL (≈ 137 µM). For the same compound, the MIC50 (Salmonella enteritidis) was 6.86 µg/mL (≈ 23.1 µM), the MIC90 (Salmonella enteritidis) was 11.5 µg/mL (≈ 38.7 µM) and the MIC50 ([5]; read-out: MIC50 values) was 5.87 µg/mL (≈ 19.8 µM). For the same compound, the MIC90 ([5]; read-out: MIC90 values) was 17.7 µg/mL (≈ 59.5 µM), the MIC50 (Epidermophyton floccasum) was 12.5 µg/mL (≈ 42.1 µM) and the MIC50 (Aspergillus sp.) was 16.2 µg/mL (≈ 54.6 µM). It also gave an MIC90 (Aspergillus sp.) of 48.3 µg/mL (≈ 163 µM), an MIC50 (Leptospira canicola) of 9.36 µg/mL (≈ 31.5 µM) and an MIC90 (Leptospira canicola) of 15.4 µg/mL (≈ 51.8 µM). It also gave an MIC50 (Proteus morganii) of 3.13 µg/mL (≈ 10.5 µM), an MIC90 (Proteus morganii) of 10.2 µg/mL (≈ 34.2 µM) and an MIC (Fusarium sp.) of 50 µg/mL (≈ 168 µM). The MIC50 (Staphylococcus aureus) was 5.91 µg/mL (≈ 19.9 µM), the MIC90 (Staphylococcus aureus) was 12.9 µg/mL (≈ 43.6 µM) and the MIC50 (Haemophilus influenzae) was 3.51 µg/mL (≈ 11.8 µM). It also gave an MIC90 (Haemophilus influenzae) of 39.2 µg/mL (≈ 132 µM), an MIC50 (Microsporum gypseum) of 12.5 µg/mL (≈ 42.1 µM) and an MIC90 (Microsporum gypseum) of 20.8 µg/mL (≈ 70 µM). The “concentrations at which no irritating effects were made on the eye structure” value [6] was “lower than 1.25%”, the “Lethal Average Dose (LD50)” value (Oral LD50 [7]; female Sprague Dawley rats) was 1515.5 mg/kg of body mass and the “Lethal Average Dose (LD50)” value (Oral LD50 [7]; male Sprague Dawley rats) was 1857 mg/kg of body mass. For the same compound, the Accumulated clinical recuperation (Pseudomonas aeruginosa [8]; Formula 0.15%, day 3, 10 mice) was 80.0a %, the “Accumulated clinical recuperation, n (recuperated animals)” value (“Accumulated clinical recuperation, n” for short) (Pseudomonas aeruginosa [8]; Formula 0.15%, day 3, 10 mice) was 8 and the Accumulated clinical recuperation (Pseudomonas aeruginosa [8]; Formula 0.15%, day 5, 10 mice) was 100.0a %. The “Accumulated clinical recuperation, n” value (Pseudomonas aeruginosa [8]; Formula 0.15%, day 5, 10 mice) was 10, the Accumulated clinical recuperation (Pseudomonas aeruginosa [8]; Formula 0.15%, day 7, 10 mice) was 100.0% and the “Accumulated clinical recuperation, n” value (Pseudomonas aeruginosa [8]; Formula 0.15%, day 7, 10 mice) was 10. For the same compound, the Accumulated clinical recuperation (Pseudomonas aeruginosa [8]; Formula 0.2%, day 3, 10 mice) was 80.0a %, the “Accumulated clinical recuperation, n” value (Pseudomonas aeruginosa [8]; Formula 0.2%, day 3, 10 mice) was 8 and the Accumulated clinical recuperation (Pseudomonas aeruginosa [8]; Formula 0.2%, day 5, 10 mice) was 100.0a %. For the same compound, the “Accumulated clinical recuperation, n” value (Pseudomonas aeruginosa [8]; Formula 0.2%, day 5, 10 mice) was 10, the Accumulated clinical recuperation (Pseudomonas aeruginosa [8]; Formula 0.2%, day 7, 10 mice) was 100.0% and the “Accumulated clinical recuperation, n” value (Pseudomonas aeruginosa [8]; Formula 0.2%, day 7, 10 mice) was 10. The Accumulated clinical recuperation (Pseudomonas aeruginosa [8]; Formula 0.25%, day 3, 10 mice) was 50.0a %, the “Accumulated clinical recuperation, n” value (Pseudomonas aeruginosa [8]; Formula 0.25%, day 3, 10 mice) was 5 and the Accumulated clinical recuperation (Pseudomonas aeruginosa [8]; Formula 0.25%, day 5, 10 mice) was 90.0a %. For the same compound, the “Accumulated clinical recuperation, n” value (Pseudomonas aeruginosa [8]; Formula 0.25%, day 5, 10 mice) was 9, the Accumulated clinical recuperation (Pseudomonas aeruginosa [8]; Formula 0.25%, day 7, 10 mice) was 100.0% and the “Accumulated clinical recuperation, n” value (Pseudomonas aeruginosa [8]; Formula 0.25%, day 7, 10 mice) was 10. The clinical recuperation (queratoconjunctivitis) was 89,6%, the Recuperated n ([9]; 27 females, 19 females) was 20 and the “IIA (Artificial insemination index)” value [9] was 1.091±0.30a. The Recuperated % [9] was 74.1%, the “T-R (Average of treatment interval of clinical recuperation)” value [9] was 17.7 days and the “IIA (Artificial insemination index)” value ([9]; listed as new formula) was 1.09 ± 0.30.
